The target in assay [1] is T1, purified and unphosphorylated T315I Abl kinase domain (ABL_T315I_0P) (Mus musculus, UniProt P00520, T315I).
T1 construct: The c-Abl T3151 KD (kinase domain) was purified as follows; Met-Ser-Leu (vector-derived residues) (N); made in house; host or cells: E. coli BL21(DE3) strains (Codon+RIL, or pSA0145 for the lambda phosphatase co-expression plasmid)
T1 sequence (P00520 242-493 T315I limits assumed): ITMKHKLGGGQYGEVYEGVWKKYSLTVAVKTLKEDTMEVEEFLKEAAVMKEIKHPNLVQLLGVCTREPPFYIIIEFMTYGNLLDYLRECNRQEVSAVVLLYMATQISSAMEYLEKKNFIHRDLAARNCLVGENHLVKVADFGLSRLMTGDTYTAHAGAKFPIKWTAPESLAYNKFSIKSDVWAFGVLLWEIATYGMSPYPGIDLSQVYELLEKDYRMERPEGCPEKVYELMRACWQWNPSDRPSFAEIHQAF
Put plainly: c-Abl T315I (unphosphorylated kinase domain) pyruvate kinase/lactate dehydrogenase coupled enzyme assay. The settings on record: 10 μM ATP. The format is biochemical.

The target of a further assay is T2, ABL T315I BAF3 cells (Homo sapiens, UniProt P00519, T315I, cells depend on it).
T2 construct: ABL T315I BAF3; fused on or other part: P11274 (Breakpoint cluster region protein)
Put plainly: 96-well XTT cell survival assay, BaF3 ABL T315I. Format: cell-based. The settings on record: 72 hours, read-out: CELL BIO ABL T315I BAF3 XTT (IC50). In short, it runs like this:
(§1)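 Ba/F3 cells in RPMI 1640 with 10% FBS (IL-3 medium for maintenance) were seeded at 5000-8000 cells/well and exposed to compound dilutions in duplicate for 72 h at 37° C. Viability read by XTT/PMS, absorbance 405 nm minus 650 nm after 2-6 h.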

Another assay has as its target T3, ABL P210WT BAF3 cells (Homo sapiens, UniProt P00519).
T3 construct: ABL P210WT BAF3; fused on or other part: P11274 (Breakpoint cluster region protein)
The experiment in a line: 96-well XTT cell survival assay, BaF3 ABL P210WT. The format is cell-based. The settings on record: ABL P210 WT, 72 hours, read-out: CELL BIO ABL P210WT BAF3 XTT (IC50). In short, it runs like this: as §1

The values that follow come from patent publication US8158647B2, “Substituted pyrrolopyridines and pyrazolopyridines as kinase modulators” (SGX Pharmaceuticals, Inc., priority 2007, dated 2012).

With `COc1ccccc1-c1c[nH]c2ncc(-c3cncc(C(O)C(=O)N(C)C)c3)c(C#N)c12` (stereo not drawn) [2-{5-[4-Cyano-3-(2-methoxy-phenyl)-1H-pyrrolo[2,3-b]pyridin-5-yl]-pyridin-3-yl}-2-hydroxy-N,N-dimethyl-acetamide], the “ABL_T315I_0P (IC50)” value in assay [1] is “D (<0.01 μM)”. In addition, the GI50 on ABL T315I BAF3 cells and at ABL P210WT BAF3 cells was more than 1000 nM in each case.

`CCc1c(-c2cncc(C(O)C(=O)N(C)C)c2)cnc2[nH]cc(-c3ccccc3OC)c12` (stereo not drawn) [2-{5-[4-Ethyl-3-(2-methoxy-phenyl)-1H-pyrrolo[2,3-b]pyridin-5-yl]-pyridin-3-yl}-2-hydroxy-N,N-dimethyl-acetamide]: the “ABL_T315I_0P (IC50)” value in assay [1] is given as “D (<0.01 μM)”. Also, the GI50 on ABL T315I BAF3 cells and on ABL P210WT BAF3 cells was 100 to 1000 nM each time.

As for `COc1ccccc1-c1c[nH]c2ncc(-c3cncc(C(=O)C(=O)N(C)C)c3)c(OC)c12` [2-{5-[4-Methoxy-3-(2-methoxy-phenyl)-1H-pyrrolo[2,3-b]pyridin-5-yl]-pyridin-3-yl}-N,N-dimethyl-2-oxo-acetamide], the “ABL_T315I_0P (IC50)” value in assay [1] is reported as “D (<0.01 μM)”. The values for the GI50 on ABL T315I BAF3 cells and on ABL P210WT BAF3 cells were 10 to 100 nM and 100 to 1000 nM, respectively.

`COc1ccccc1-c1c[nH]c2ncc(Br)c(N(C)CCO)c12` [2-{[5-Bromo-3-(2-methoxy-phenyl)-1H-pyrrolo[2,3-b]pyridin-4-yl]-methyl-amino}-ethanol]: the “ABL_T315I_0P (IC50)” value in assay [1] is on record as “C (0.1-0.01 μM)”. Besides, the GI50 at ABL T315I BAF3 cells and at ABL P210WT BAF3 cells was more than 1000 nM each time.

For `CN(C)C(=O)c1nc(-c2cnc3[nH]cc(-c4ccccc4)c3c2Cl)cnc1N` [3-Amino-6-(4-chloro-3-phenyl-1H-pyrrolo[2,3-b]pyridin-5-yl)-pyrazine-2-carboxylic acid dimethylamide], the “ABL_T315I_0P (IC50)” value in assay [1] is on record as “D (<0.01 μM)”. For the same molecule, the GI50 at ABL T315I BAF3 cells and on ABL P210WT BAF3 cells was 100 to 1000 nM in each case.

In the case of `COc1ccccc1-c1c[nH]c2ncc(-c3cccc(C(=O)N(C)C)c3)c(C)c12` [3-[3-(2-Methoxy-phenyl)-4-methyl-1H-pyrrolo[2,3-b]pyridin-5-yl]-N,N-dimethyl-benzamide], in assay [1], the “ABL_T315I_0P (IC50)” value was “D (<0.01 μM)”. In addition, the GI50 on ABL T315I BAF3 cells and at ABL P210WT BAF3 cells was 10 to 100 nM each time.

In the case of `COc1ccccc1-c1c[nH]c2ncc(-c3cccc(C(=O)N(C)C)c3)c(Cl)c12` [3-[4-Chloro-3-(2-methoxy-phenyl)-1H-pyrrolo[2,3-b]pyridin-5-yl]-N,N-dimethyl-benzamide], the “ABL_T315I_0P (IC50)” value in assay [1] is given as “D (<0.01 μM)”. Also, the GI50 on ABL T315I BAF3 cells and at ABL P210WT BAF3 cells was 10 to 100 nM in each case.

Take `CN(C)C(=O)c1nc(-c2cnc3[nH]cc(-c4ccc(F)cc4)c3c2Cl)cnc1N` [3-amino-6-[4-chloro-3-(4-fluoro-phenyl)-1H-pyrrolo[2,3-b]pyridin-5-yl]-pyrazine-2-carboxylic acid dimethylamide]: the “ABL_T315I_0P (IC50)” value in assay [1] is listed as “C (0.1-0.01 μM)”. The GI50 at ABL T315I BAF3 cells and on ABL P210WT BAF3 cells was 100 to 1000 nM each time.

As to `COc1ccc(F)cc1-c1c[nH]c2ncc(-c3cnc(N)c(C(=O)N(C)C)n3)c(Cl)c12` [3-amino-6-[4-chloro-3-(5-fluoro-2-methoxy-phenyl)-1H-pyrrolo[2,3-b]pyridin-5-yl]-pyrazine-2-carboxylic acid dimethylamide], the “ABL_T315I_0P (IC50)” value in assay [1] is recorded as “D (<0.01 μM)”. In addition, the GI50 at ABL T315I BAF3 cells was 10 to 100 nM; on ABL P210WT BAF3 cells, less than 10 nM.

For `CN(C)C(=O)c1cncc(-c2cnc3[nH]nc(-c4ccccc4)c3c2Cl)c1` [5-(4-Chloro-3-phenyl-1H-pyrazolo[3,4-b]pyridin-5-yl)-N,N-dimethyl-nicotinamide], in assay [1], the “ABL_T315I_0P (IC50)” value is given as “B (1.0-0.1 μM)”. Further, the GI50 at ABL T315I BAF3 cells and at ABL P210WT BAF3 cells was more than 1000 nM each time.

For `CN(C)C(=O)c1cncc(-c2cnc3[nH]cc(-c4ccccc4)c3c2Cl)c1` [5-(4-Chloro-3-phenyl-1H-pyrrolo[2,3-b]pyridin-5-yl)-N,N-dimethyl-nicotinamide], in assay [1], the “ABL_T315I_0P (IC50)” value is “D (<0.01 μM)”. Further, the GI50 on ABL T315I BAF3 cells and on ABL P210WT BAF3 cells was more than 1000 nM throughout.

For `COc1ccccc1-c1c[nH]c2ncc(Br)c(N)c12` [5-Bromo-3-(2-methoxy-phenyl)-1H-pyrrolo[2,3-b]pyridin-4-ylamine], the “ABL_T315I_0P (IC50)” value in assay [1] is on record as “C (0.1-0.01 μM)”. Moreover, the GI50 on ABL T315I BAF3 cells and on ABL P210WT BAF3 cells was more than 1000 nM each time.

Take `COc1ccccc1-c1c[nH]c2ncc(Br)c(SC)c12` [5-Bromo-3-(2-methoxy-phenyl)-4-methylsulfanyl-1H-pyrrolo[2,3b]pyridine]: the “ABL_T315I_0P (IC50)” value in assay [1] is listed as “B (1.0-0.1 μM)”. Also, the GI50 at ABL T315I BAF3 cells and at ABL P210WT BAF3 cells was more than 1000 nM in each case.

Regarding `CN(C)C(=O)c1cncc(-c2cnc3[nH]cc(-c4cccc(F)c4F)c3c2Cl)c1` [5-[4-Chloro-3-(2,3-difluoro-phenyl)-1H-pyrrolo[2,3-b]pyridin-5-yl]-N,N-dimethyl-nicotinamide], the “ABL_T315I_0P (IC50)” value in assay [1] was “D (<0.01 μM)”. The GI50 at ABL T315I BAF3 cells and at ABL P210WT BAF3 cells was 100 to 1000 nM in each case.

For `CN(C)C(=O)c1cncc(-c2cnc3[nH]cc(-c4ccc(F)cc4F)c3c2Cl)c1` [5-[4-Chloro-3-(2,4-difluoro-phenyl)-1H-pyrrolo[2,3-b]pyridin-5-yl]-N,N-dimethyl-nicotinamide], in assay [1], the “ABL_T315I_0P (IC50)” value was “C (0.1-0.01 μM)”. Further, the GI50 on ABL T315I BAF3 cells and at ABL P210WT BAF3 cells was more than 1000 nM each time.

With `CN(C)C(=O)c1cncc(-c2cnc3[nH]cc(-c4ccccc4Cl)c3c2Cl)c1` [5-[4-Chloro-3-(2-chloro-phenyl)-1H-pyrrolo[2,3-b]pyridin-5-yl]-N,N-dimethyl-nicotinamide], the “ABL_T315I_0P (IC50)” value in assay [1] is “D (<0.01 μM)”. Also, the GI50 is more than 1000 nM at ABL T315I BAF3 cells and 100 to 1000 nM on ABL P210WT BAF3 cells.

Turning to `CNC(=O)c1cncc(-c2cnc3[nH]cc(-c4ccccc4F)c3c2Cl)c1` [5-[4-Chloro-3-(2-fluoro-phenyl)-1H-pyrrolo[2,3-b]pyridin-5-yl]-N-methyl-nicotinamide], the “ABL_T315I_0P (IC50)” value in assay [1] is given as “C (0.1-0.01 μM)”. In addition, the GI50 on ABL T315I BAF3 cells and on ABL P210WT BAF3 cells was more than 1000 nM each time.

For `CSc1ccccc1-c1c[nH]c2ncc(-c3cncc(C(=O)N(C)C)c3)c(Cl)c12` [5-[4-Chloro-3-(2-methylsulfanyl-phenyl)-1H-pyrrolo[2,3-b]pyridin-5-yl]-N,N-dimethyl-nicotinamide], the “ABL_T315I_0P (IC50)” value in assay [1] is given as “D (<0.01 μM)”. The GI50 at ABL T315I BAF3 cells and on ABL P210WT BAF3 cells was more than 1000 nM each time.

As for `Cc1noc(C)c1-c1c[nH]c2ncc(-c3cncc(C(=O)N(C)C)c3)c(Cl)c12` [5-[4-Chloro-3-(3,5-dimethyl-isoxazol-4-yl)-1H-pyrrolo[2,3-b]pyridin-5-yl]-N,N-dimethyl-nicotinamide], in assay [1], the “ABL_T315I_0P (IC50)” value was “B (1.0-0.1 μM)”. Also, the GI50 on ABL T315I BAF3 cells and on ABL P210WT BAF3 cells was more than 1000 nM each time.

On to `COc1ccc(F)cc1-c1c[nH]c2ncc(-c3cncc(C(=O)N(C)C)c3)c(Cl)c12` [5-[4-Chloro-3-(5-fluoro-2-methoxy-phenyl)-1H-pyrrolo[2,3-b]pyridin-5-yl]-N,N-dimethyl-nicotinamide], for which the “ABL_T315I_0P (IC50)” value in assay [1] is reported as “D (<0.01 μM)”. Also, the GI50 at ABL T315I BAF3 cells was 10 to 100 nM; on ABL P210WT BAF3 cells, less than 10 nM.
